Results reported in patent US11590139B2, “Substituted aminopurine compounds, compositions thereof, and methods of treatment therewith” (Signal Pharmaceuticals, LLC, priority 2014, dated 2023).
Where two headings read alike, the source gives them in different places.

Test system: Lox-IMVI melanoma cell line
Assay: Lox-IMVI anti-proliferative assay (growth inhibition, Cell Titer-Glo)
Assay type: cell-based, human
Conditions: Homo sapiens
Protocol: Determination of the Growth Inhibitory Effect of Aminopurine Compounds. The Lox-IMVI melanoma cell line (Source: NCI-DCTD, catalog No. 0507283) was maintained and tested in RPMI+10% FBS. The seeding density for the cell line was optimized to ensure assay linearity in 384-well plates.
Increasing concentrations of Aminopurine Compound (0.5 nM to 10 μM) were spotted in a 10-point serial dilution fashion (3-fold dilution) in duplicate within the plate via an acoustic dispenser (EDC ATS-100) into an empty 384-well plate. The dimethyl sulfoxide (DMSO) concentration was kept constant for a final assay concentration of 0.2% DMSO. Prior to testing, cells were grown and expanded in culture flasks to provide sufficient amounts of starting material. Cells were then diluted to their desired densities and added directly to the compound-spotted 384-well plates. Cells were allowed to grow for 72 hours in 5% CO2 at 37° C. At the time when exposure of cells to compound began (t0), initial cell number was assessed via a viability assay (Cell Titer-Glo) by quantifying the level of luminescence generated by adenosine-5′-triphosphate (ATP) present in viable cells. After 72 hours, cell viability of compound-treated cells was assessed via Cell Titer-Glo Luminescent Cell Viability Assay (Promega Corporation, Madison, Wis.) and read for luminescence.
All data was normalized and represented as a percentage of the DMSO-treated control cells after 72 h. Results were expressed as a IC50 value, which is the compound concentration required to inhibit 50% of the untreated control cells during the 72 hours of treatment.
A Four Parameter Logistic Model (Sigmoidal Dose-Response Model) was used to determine the compound's IC50. y=(A+((B−A)/(1+((C/x)^D))))
wherein: • A=YMin • B=YMax • C=EC50 • D=Hill Slope • IC50 is the compound concentration when Y=50% of DMSO control • Y=Luminescence unit
All inhibition curves were processed and evaluated using XLFit and Activity Base (IDBS).

[1] = IC50 activity level in the cell-based Lox-IMVI anti-proliferative assay, read-out: Activity
[2] = Lox-IMVI anti-proliferative assay, IC50 activity level, read-out: Activity
[3] = Lox-IMVI melanoma cell line, anti-proliferative assay, read-out: Activity (IC50 activity level)

SMILES	IC50 [1] [nM]	IC50 [2] [nM]	other results
C[C@@H](CO)Nc1ncc2nc(Nc3cccc(Cl)c3F)n([C@H]3CC[C@@H](C(N)=O)CC3)c2n1 [Example 172, (1R,4s)-4-(8-(3-chloro-2-fluorophenylamino)-2-((S)-1-hydroxypropan-2-ylamino)-9H-purin-9-yl)cyclohexanecarboxamide]	> 1000	–	–
CC[C@@H](CO)Nc1ncc2nc(Nc3c(F)cc(C#N)cc3F)n([C@H]3CC[C@@H](C(N)=O)CC3)c2n1 [Example 402, (1R,4s)-4-(8-(4-cyano-2,6-difluorophenylamino)-2-((S)-1-hydroxybutan-2-ylamino)-9H-purin-9-yl)cyclohexanecarboxamide]	–	> 1000	–
CC(C)Nc1ncc2nc(Nc3c(F)cc(F)cc3Cl)n([C@H]3CC[C@@H](C(N)=O)CC3)c2n1 [Example 125, (1s,4s)-4-(8-(2-chloro-4,6-difluorophenylamino)-2-(isopropylamino)-9H-purin-9-yl)cyclohexanecarboxamide]	500 to 1000	–	–
N#Cc1cc(Cl)c(Nc2nc3cnc(N[C@@H]4CCOC[C@H]4F)nc3n2[C@H]2CC[C@@H](C(N)=O)CC2)c(Cl)c1 [Example 762, (1S,4s)-4-(8-(2,6-dichloro-4-cyanophenylamino)-2-((3S,4R)-3-fluorotetrahydro-2H-pyran-4-ylamino)-9H-purin-9-yl)cyclohexanecarboxamide]	–	–	IC50 [3]: < 250 nM
C[C@]1(C(N)=O)CC[C@@H](n2c(Nc3c(F)cc(Cl)cc3F)nc3cnc(NC4CC(F)(F)C4)nc32)CC1 [Example 581, (1s,4s)-4-(8-(4-chloro-2,6-difluorophenylamino)-2-(3,3-difluorocyclobutylamino)-9H-purin-9-yl)-1-methylcyclohexanecarboxamide]	–	< 250	–
NC(=O)[C@H]1CC[C@@H](n2c(Nc3c(F)cccc3F)nc3cnc(N[C@H]4CC[C@H](O)C4)nc32)CC1 [Example 326, (1R,4s)-4-(8-(2,6-difluorophenylamino)-2-((1S,3S)-3-hydroxycyclopentylamino)-9H-purin-9-yl)cyclohexanecarboxamide]	> 1000	–	–
C[C@]1(C(N)=O)CC[C@@H](n2c(Nc3c(F)cc(Cl)cc3F)nc3cnc(N[C@@H]4CCC[C@H](O)C4)nc32)CC1 [Example 566, (1S,4s)-4-(8-(4-chloro-2,6-difluorophenylamino)-2-((1R,3S)-3-hydroxycyclohexylamino)-9H-purin-9-yl)-1-methylcyclohexanecarboxamide]	–	250 to 500	–
N#Cc1cc(F)c(Nc2nc3cnc(N[C@@H]4CCCN(c5ccccc5)C4)nc3n2[C@H]2CC[C@@H](C(N)=O)CC2)c(F)c1 [Example 745, (1S,4s)-4-(8-(4-cyano-2,6-difluorophenylamino)-2-((R)-1-phenylpiperidin-3-ylamino)-9H-purin-9-yl)cyclohexanecarboxamide]	–	–	IC50 [3]: > 1000 nM
N#Cc1ccc(Nc2nc3cnc(NC4CCCC4)nc3n2[C@H]2CC[C@@H](C(N)=O)CC2)c(Cl)c1Cl [Example 693, (1s,4s)-4-(2-(cyclopentylamino)-8-(2,3-dichloro-4-cyanophenylamino)-9H-purin-9-yl)cyclohexanecarboxamide]	–	–	IC50 [3]: > 1000 nM
NC(=O)[C@H]1CC[C@@H](n2c(Nc3c(F)cccc3F)nc3cnc(N[C@@H]4CCC[C@@H](O)C4)nc32)CC1 [Example 419, (1S,4s)-4-(8-(2,6-difluorophenylamino)-2-((1R,3R)-3-hydroxycyclohexylamino)-9H-purin-9-yl)cyclohexanecarboxamide]	–	> 1000	–
N#Cc1cc(Cl)c(Nc2nc3cnc(N[C@@H]4CCC[C@@H](O)C4)nc3n2[C@H]2CC[C@@H](C(N)=O)CC2)c(Cl)c1 [Example 684, (1S,4s)-4-(8-(2,6-dichloro-4-cyanophenylamino)-2-((1R,3R)-3-hydroxycyclohexylamino)-9H-purin-9-yl)cyclohexanecarboxamide]	–	–	IC50 [3]: 500 to 1000 nM
N#Cc1cc(F)c(Nc2nc3cnc(NC[C@@H]4CCCC[C@@H]4O)nc3n2[C@H]2CC[C@@H](C(N)=O)CC2)c(Cl)c1 [Example 658, (1R,4s)-4-(8-(2-chloro-4-cyano-6-fluorophenylamino)-2-(((1S,2S)-2-hydroxycyclohexyl)methylamino)-9H-purin-9-yl)cyclohexanecarboxamide]	–	–	IC50 [3]: > 1000 nM
NC(=O)[C@H]1CC[C@@H](n2c(Nc3c(F)cc(Cl)cc3F)nc3cnc(N[C@@H]4CCOC[C@H]4F)nc32)CC1 [Example 671, (1S,4s)-4-(8-(4-chloro-2,6-difluorophenylamino)-2-((3S,4R)-3-fluorotetrahydro-2H-pyran-4-ylamino)-9H-purin-9-yl)cyclohexanecarboxamide]	–	–	IC50 [3]: < 250 nM
C[C@]1(C(N)=O)CC[C@@H](n2c(Nc3c(Cl)cc(C(F)(F)F)cc3Cl)nc3cnc(N[C@@H]4CCC[C@H](O)C4)nc32)CC1 [Example 577, (1S,4s)-4-(8-(2,6-dichloro-4-(trifluoromethyl)phenylamino)-2-((1R,3S)-3-hydroxycyclohexylamino)-9H-purin-9-yl)-1-methylcyclohexanecarboxamide]	–	> 1000	–

Further lines, with some results ahead:

IC50 [1] [nM]	IC50 [2] [nM]	SMILES	other results
500 to 1000	–	NC(=O)[C@H]1CC[C@@H](n2c(Nc3c(Cl)cc(Cl)cc3Cl)nc3cnc(N[C@@H]4CC[C@H](O)C4)nc32)CC1 [Example 333, (1S,4s)-4-(2-((1R,3S)-3-hydroxycyclopentylamino)-8-(2,4,6-trichlorophenylamino)-9H-purin-9-yl)cyclohexanecarboxamide]	–
–	> 1000	NC(=O)[C@H]1CC[C@@H](n2c(Nc3c(Cl)cc(Cl)cc3Cl)nc3cnc(N[C@H]4CCC[C@H](O)C4)nc32)CC1 [Example 461, (1R,4s)-4-(2-((1S,3S)-3-hydroxycyclohexylamino)-8-(2,4,6-trichlorophenylamino)-9H-purin-9-yl)cyclohexanecarboxamide]	–
> 1000	–	NC(=O)[C@H]1CC[C@@H](n2c(Nc3cc(Cl)c(Cl)cc3Cl)nc3cnc(NC4CCOCC4)nc32)CC1 [Example 65, (1s,4s)-4-(2-(tetrahydro-2H-pyran-4-ylamino)-8-(2,4,5-trichlorophenylamino)-9H-purin-9-yl)cyclohexanecarboxamide]	–
> 1000	–	NC(=O)[C@H]1CC[C@@H](n2c(Nc3c(F)cc(Cl)cc3F)nc3cnc(NC4CC(F)(F)C4)nc32)CC1 [Example 229, (1s,4s)-4-(8-(4-chloro-2,6-difluorophenylamino)-2-(3,3-difluorocyclobutylamino)-9H-purin-9-yl)cyclohexanecarboxamide]	–
500 to 1000	–	Cc1cc(Cl)c(Nc2nc3cnc(NC4CCOCC4)nc3n2[C@H]2CC[C@@H](C(N)=O)CC2)cc1Cl [Example 80, (1s,4s)-4-(8-(2,5-dichloro-4-methylphenylamino)-2-(tetrahydro-2H-pyran-4-ylamino)-9H-purin-9-yl)cyclohexanecarboxamide]	–
250 to 500	–	NC(=O)[C@H]1CC[C@@H](n2c(Nc3ccc(Cl)c(F)c3F)nc3cnc(NC4CCOCC4)nc32)CC1 [Example 72, (1s,4s)-4-(8-(4-chloro-2,3-difluorophenylamino)-2-(tetrahydro-2H-pyran-4-ylamino)-9H-purin-9-yl)cyclohexanecarboxamide]	–
500 to 1000	–	NC(=O)[C@H]1CC[C@@H](n2c(Nc3ccc(Cl)c(F)c3F)nc3cnc(NC4CCC(F)(F)CC4)nc32)CC1 [Example 290, (1s,4s)-4-(8-(4-chloro-2,3-difluorophenylamino)-2-(4,4-difluorocyclohexylamino)-9H-purin-9-yl)cyclohexanecarboxamide]	–
–	> 1000	COC(=O)N1CCCC(Nc2ncc3nc(Nc4c(F)cc(F)cc4F)n([C@H]4CC[C@@H](C(N)=O)CC4)c3n2)C1 (stereo partly drawn) [Example 403, (R)-methyl 3-(9-((1s,4S)-4-carbamoylcyclohexyl)-8-(2,4,6-tnfluorophenylamino)-9H-purin-2-ylamino)piperidine-1-carboxylate]	–
–	> 1000	C[C@]1(C(N)=O)CC[C@H](n2c(Nc3c(Cl)cc(Cl)cc3Cl)nc3cnc(NC4CCOCC4)nc32)CC1 [Example 474, (1r,4r)-1-methyl-4-(2-(tetrahydro-2H-pyran-4-ylamino)-8-(2,4,6-trichlorophenylamino)-9H-purin-9-yl)cyclohexanecarboxamide]	–
–	> 1000	COC(=O)N1CCC[C@@H](Nc2ncc3nc(Nc4c(F)cc(F)cc4Cl)n([C@H]4CC[C@@H](C(N)=O)CC4)c3n2)C1 [Example 407, (R)-methyl 3-(9-((1s,4S)-4-carbamoylcyclohexyl)-8-(2-chloro-4,6-difluorophenylamino)-9H-purin-2-ylamino)piperidine-1-carboxylate]	–
500 to 1000	–	NC(=O)[C@H]1CC[C@@H](n2c(Nc3c(F)cc(Cl)cc3F)nc3cnc(N[C@H]4CCOC4)nc32)CC1 [Example 242, (1R,4s)-4-(8-(4-chloro-2,6-difluorophenylamino)-2-((S)-tetrahydrofuran-3-ylamino)-9H-purin-9-yl)cyclohexanecarboxamide]	–
